Like-named read-outs stand apart in the source and are kept apart here.
Key:
Hemophilus influenzae = experiment: agar-dilution MIC; assay type: cell-based; conditions: Table 17
Bacteroides fragilis = experiment: agar-dilution MIC; assay type: cell-based
From the text: (§1) The agar-dilution procedure described by the International Collaborative study (ICS) group was used to determine the minimum inhibitory concentrations (MIC's).

[1] = test system: Staphylococcus epidermidis; experiment: agar-dilution MIC; assay type: cell-based; conditions: Staphylococcus epidermidis EPI1; Table 17
From the text: as §1

Streptococcus pneumoniae = experiment: agar-dilution MIC; assay type: cell-based; conditions: Streptococcus pneumoniae Park I; Table 17
From the text: as §1

Streptococcus pyogenes = experiment: agar-dilution MIC; assay type: cell-based; conditions: Streptococcus pyogenes C203; Table 17
From the text: as §1

Bacteroides corrodens = experiment: agar-dilution MIC; assay type: cell-based; conditions: B. corrodens 1874; 24-hour; Table 12
From the text: (§2) The A41030 antibiotics, factors A, B, and C, are active against a genus of anaerobic bacteria identified as Bacteroides sp., the 24-hour MIC values being determined by the agar-dilution method, and are set forth in Table 12, which follows.

Bacteroides vulgatis = experiment: agar-dilution MIC; assay type: cell-based; conditions: B. vulgatis 1563; 24-hour; Table 12
From the text: as §2

Propionibacterium acnes = experiment: agar-dilution MIC; assay type: cell-based
From the text: Antibiotic A41030 factors A, B and C have also been tested and found to be active against a genus of anaerobic bacteria identified as Propionibacterium acnes.

Clostridium difficile = assay type: cell-based
Clostridium perfringens = assay type: cell-based; conditions: Clostridium perfringens 81; Table 14
Clostridium septicum = experiment: agar-dilution MIC; assay type: cell-based; conditions: Clostridium septicum 1128; Table 14
[2] = test system: Peptococcus asaccharolyticus; experiment: agar-dilution MIC; assay type: cell-based
Protocol: (§3) The MIC values were determined by the agar-dilution method, and are recorded in Table 15, which follows.

Peptococcus constellatus = experiment: agar-dilution MIC; assay type: cell-based; conditions: Pc. constellatus 1468; Table 15
Protocol: as §3

Peptococcus magnus = experiment: agar-dilution MIC; assay type: cell-based; conditions: Table 15
Protocol: as §3

Peptococcus prevoti [3] = experiment: agar-dilution MIC; assay type: cell-based; conditions: Table 15
Protocol: as §3

[4] = test system: Peptostreptococcus anaerobius; experiment: agar-dilution MIC; assay type: cell-based
[5] = test system: Peptostreptococcus intermedius; experiment: agar-dilution MIC; assay type: cell-based; conditions: Table 15
Fusobacterium symbiosum = experiment: agar-dilution MIC; assay type: cell-based; conditions: Fusobacterium symbiosum 1470; Table 14
[6] = test system: Fusobacterium necrophorum; experiment: agar-dilution MIC; assay type: cell-based; conditions: Fusobacterium necrophorum 6054A; Table 14
solubility = assay type: physicochemical
Peptococcus prevoti [7] = experiment: agar-dilution MIC; assay type: cell-based

A41030 factor C
MIC (Hemophilus influenzae; Haemophilus influenzae 251): 4 µg/mL | MIC (Hemophilus influenzae; Haemophilus influenzae Brun): 16 µg/mL | MIC (Bacteroides fragilis; B. fragilis 2, 24-hour, Table 12): 32 µg/mL | MIC (Bacteroides fragilis; B. fragilis 9, 24-hour, Table 12): 32 µg/mL | MIC (Bacteroides fragilis; B. fragilis 103, 24-hour, Table 12): 32 µg/mL | MIC (Bacteroides fragilis; B. fragilis 104, 24-hour, Table 12): 32 µg/mL | MIC (Bacteroides fragilis; B. fragilis 106, 24-hour, Table 12): 32 µg/mL | MIC (Bacteroides fragilis; B. fragilis 107, 24-hour, Table 12): 32 µg/mL | MIC (Bacteroides fragilis; B. fragilis 108, 24-hour, Table 12): 64 µg/mL | MIC (Bacteroides fragilis; B. fragilis 110, 24-hour, Table 12): 64 µg/mL | MIC (Bacteroides fragilis; B. fragilis 111, 24-hour, Table 12): 32 µg/mL | MIC (Bacteroides fragilis; B. fragilis 112, 24-hour, Table 12): 32 µg/mL | MIC (Bacteroides fragilis; B. fragilis 113, 24-hour, Table 12): 32 µg/mL | MIC (Bacteroides fragilis; B. fragilis 1451, 24-hour, Table 12): 64 µg/mL | MIC (Bacteroides fragilis; B. fragilis 1470, 24-hour, Table 12): 64 µg/mL | MIC (Bacteroides fragilis; B. fragilis 1877, 24-hour, Table 12): 32 µg/mL | MIC (Bacteroides fragilis; B. fragilis 9032, 24-hour, Table 12): 32 µg/mL | MIC (Bacteroides fragilis; Bacteroides fragilis 1877, Table 14): 16 µg/mL | MIC (Bacteroides fragilis; Bacteroides fragilis 1936B, Table 14): 32 µg/mL | MIC [1]: 0.5 µg/mL | MIC (Streptococcus pneumoniae): 1 µg/mL | MIC (Streptococcus pyogenes): 1 µg/mL | MIC (Bacteroides corrodens): 32 µg/mL | MIC (Bacteroides vulgatis): 32 µg/mL | MIC (Propionibacterium acnes; P. acnes 104, 24-hour, Table 13): 0.25 µg/mL | MIC (Propionibacterium acnes; P. acnes 5170, 24-hour, Table 13): ≤ 0.03 µg/mL | MIC (Propionibacterium acnes; P. acnes 5176, 24-hour, Table 13): ≤ 0.03 µg/mL | MIC (Propionibacterium acnes; P. acnes 5187, 24-hour, Table 13): 0.06 µg/mL | MIC (Propionibacterium acnes; P. acnes 5197, 24-hour, Table 13): ≤ 0.03 µg/mL | MIC (Propionibacterium acnes; P. acnes 5227, 24-hour, Table 13): 0.06 µg/mL | MIC (Propionibacterium acnes; P. acnes 5228, 24-hour, Table 13): 1.0 µg/mL | MIC (Propionibacterium acnes; P. acnes 5229, 24-hour, Table 13): 0.5 µg/mL | MIC (Propionibacterium acnes; P. acnes 5246, 24-hour, Table 13): 0.06 µg/mL | MIC (Propionibacterium acnes; P. acnes 5292, 24-hour, Table 13): 0.06 µg/mL | MIC (Propionibacterium acnes; Propionibacterium acnes 79, Table 14): ≤ 0.25 µg/mL | MIC (Clostridium difficile; Clostridium difficile 78, Table 16): 1.0 µg/mL | MIC (Clostridium difficile; Clostridium difficile 107B, Table 16): 1.0 µg/mL | MIC (Clostridium difficile; Clostridium difficile 111F, Table 16): 2 µg/mL | MIC (Clostridium difficile; Clostridium difficile 1153, Table 16): 2 µg/mL | MIC (Clostridium difficile; Clostridium difficile 2634, Table 16): 2 µg/mL | MIC (Clostridium difficile; Clostridium difficile 2994, Table 14): 16 µg/mL | MIC (Clostridium difficile; Clostridium difficile 3424-5B, Table 16): 1.0 µg/mL | MIC (Clostridium difficile; Clostridium difficile 3816, Table 16): 2 µg/mL | MIC (Clostridium difficile; Clostridium difficile 3950D, Table 16): 2 µg/mL | MIC (Clostridium difficile; Clostridium difficile 6890, Table 16): 2 µg/mL | MIC (Clostridium difficile; Clostridium difficile 8484, Table 16): 1.0 µg/mL | MIC (Clostridium difficile; Clostridium difficile A-194, Table 16): 2 µg/mL | MIC (Clostridium difficile; Clostridium difficile A-195, Table 16): 1.0 µg/mL | MIC (Clostridium difficile; Clostridium difficile A-196, Table 16): 2 µg/mL | MIC (Clostridium difficile; Clostridium difficile A-279, Table 16): 2 µg/mL | MIC (Clostridium difficile; Clostridium difficile A-280, Table 16): 1.0 µg/mL | MIC (Clostridium difficile; Clostridium difficile A-281, Table 16): 2 µg/mL | MIC (Clostridium difficile; Clostridium difficile WAL-2112, Table 16): 2 µg/mL | MIC (Clostridium difficile; Clostridium difficile WAL-3657, Table 16): 2 µg/mL | MIC (Clostridium difficile; Clostridium difficile WAL-4268, Table 16): 1.0 µg/mL | MIC (Clostridium perfringens): 1.0 µg/mL | MIC (Clostridium septicum): 8 µg/mL | MIC ([2]; Pc. asaccharolyticus 1344, Table 15): 1.0 µg/mL | MIC ([2]; Peptococcus asaccharolyticus 1302, Table 14): ≤ 0.25 µg/mL | MIC (Peptococcus constellatus): 0.5 µg/mL | MIC (Peptococcus magnus; Pc. magnus 1401): 0.25 µg/mL | MIC (Peptococcus magnus; Pc. magnus 1421): 0.25 µg/mL | MIC (Peptococcus magnus; Pc. magnus 1477): 0.5 µg/mL | MIC (Peptococcus prevoti [3]; Pc. prevoti 1293): 0.5 µg/mL | MIC (Peptococcus prevoti [3]; Pc. prevoti 1407): 1.0 µg/mL | MIC ([4]; Peptostreptococcus anaerobius 1428, Table 14): ≤ 0.25 µg/mL | MIC ([4]; Ps. anaerobius 52, Table 15): 0.25 µg/mL | MIC ([4]; Ps. anaerobius 59, Table 15): 0.25 µg/mL | MIC ([4]; Ps. anaerobius 1418, Table 15): ≤ 0.03 µg/mL | MIC ([4]; Ps. anaerobius 1428, Table 15): 0.25 µg/mL | MIC ([4]; Ps. anaerobius 1451, Table 15): 0.25 µg/mL | MIC ([4]; Ps. anaerobius 1477, Table 15): 0.25 µg/mL | MIC ([5]; Ps. intermedius 1264): ≤ 0.03 µg/mL | MIC ([5]; Ps. intermedius 1624): 1.0 µg/mL | MIC (Fusobacterium symbiosum): 1.0 µg/mL | MIC [6]: 16 µg/mL | solubility (solvents) (solubility): soluble in the same solvents as factor A | MIC (Peptococcus prevoti [7]; Pc. prevoti 1281, Table 15): 1.0 µg/mL | MIC (Peptococcus prevoti [7]; Peptococcus prevoti 1281, Table 14): ≤ 0.25 µg/mL
